Experimental data published in BindingDB's records for doi:10.1021/jm950932r (National Institute of Diabetes and Digestive and Kidney …, 1996).

Assay: Compound was evaluated for inhibition of hormone stimulated Adenylate cyclase activity in N18TG2 membranes.

SMILES: O=C(c1cccc2ccccc12)c1cn(CCN2CCOCC2)c2ccccc12
- EC50: 275 nM

SMILES: Cc1c(C(=O)c2cccc3ccccc23)c2ccccc2n1CCN1CCOCC1
- EC50: 370 nM

SMILES: Cc1c(C(=O)c2ccc(N=C=S)c3ccccc23)c2ccccc2n1CCN1CCOCC1 [(4-Isothiocyanato-naphthalen-1-yl)-[2-methyl-1-(2-morpholin-4-yl-ethyl)-1H-indol-3-yl]-methanone]
- EC50: 3000 nM

SMILES: O=C(c1cccc2ccccc12)c1cn(CCN2CCOCC2)c2cc(N=C=S)ccc12 [[6-Isothiocyanato-1-(2-morpholin-4-yl-ethyl)-1H-indol-3-yl]-naphthalen-1-yl-methanone]
- EC50: 1100 nM
